Experimental data reported in patent US8906602B2, “Methods for identifying candidate compounds for treating, reducing, or preventing pathogenic infections” (The General Hospital Corporation, priority 2004, dated 2014).

Tests used:
[1] = test system: pyocyanin production; assay: Pyocyanin production in pqs or mvfR mutant cultures; assay type: cell-based, Pseudomonas aeruginosa pqs or mvfR mutants; conditions: addition to cultures of any pqs or mvfR mutants
Experimental: Whereas pqsA or pqsB inactivation abolish HAQ production, a pqsE mutant produces essentially normal HAQ levels (FIG. 12), and HAQ-related antibiotic activity (FIG. 6). […] Supporting this notion, mvfR overexpression gave excessive pyocyanin accumulation (FIG. 12). […] Such compounds would not be detected by our assay, which was aimed at extracellular compounds. Loss of these compounds might underlie the reduced pathogenicity of a pqsE mutant.
Bacteria were grown in Luria-Bertani broth or on 1.5% Bacto-agar (Difco) LB plates. Freshly plated cells served as inoculum. For pyocyanin production, bacteria were grown in King's A broth (King et al., J. Lab. Clin. Med. 44, 301, 1954) and the pyocyanin quantified as OD520 after supernatant extraction (Essar et al., J. Bacteriol. 172, 884-900, 1990). Tetracycline (75 mg/L), carbenicillin (300 mg/L), kanamycin (200 mg/L), and gentamicin (100 mg/L) were included as required.

[2] = test system: pqsA-lacZ reporter; assay: pqsA-lacZ reporter induction in pqsA mutant cultures; assay type: cell-based, Pseudomonas aeruginosa pqsA mutant; conditions: pqsA mutant background, compounds added at onset of culture at 10 mg/L
From the text: Activity is reported as Miller units (MU), corrected for the OD of the cultures at 600 nm.
(§1) P. aeruginosa strains include: wild type PA14 (Rahme et al., Science 268, 1899-1902, 1995); an mvfR mutant (Cao et al., Proc. Natl. Acad. Sci. USA 98, 14613 -8, 2001); 8C12, a TnphoA-insertion mutant of pqsB (Mahajan-Miklos et al., Cell 96, 47-56, 1999); and a lasR::Gm mutant, which was generated by allelic exchange using pSB219.9A as described (Beatson et al., J Bacteriol 184, 3598-604, 2002). A pqsE deletion mutant was generated via pEX18Ap allelic replacement, using sucrose selection, resulting in a 570 bp non-polar deletion covering 65% of the sequence (Hoang et al., Gene 212, 77-86, 1998). The pqsA (U479) TnphoA mutant was obtained from the PA14 Transposon Insertion Mutant Database. For complementation analysis, mvfR was cloned into pDN18 (Nunn et al., J. Bacteriol. 172, 1990). The reporter fusions phzABC-lacZ and hcnA′-lacZ have been described (Whiteley et al., J. Bacteriol. 182, 4356-60, 2000; Pessi et al., J. Bacteriol. 182, 6940-9, 2000). Plasmids were transformed into PA14 by electroporation (Smith et al., Nuc. Acid. Res. 17, 10509, 1989). Specific β-galactosidase activity was determined as reported (Miller, Cold Spring Harbor Laboratory, Cold Spring Harbor, N.Y., pp. 352-355 1972).

[3] = Pesci et al. 1999; cited from earlier work
[4] = test system: Bacillus subtilis; assay: Antimicrobial activity assay on well-plates (growth inhibition zones); assay type: cell-based; conditions: well-plate, 60 μl of 25% methanol solution of test extract or pure HAQ, overnight 37° C.; FIG. 10
From the text: Bacillus subtilis growth on well plates was scored for inhibition by culture extracts of PA14 and the mvfR, pqsA, and pqsE mutant strains (left plate), and by purified PQS, HHQ and HQNO, versus PA14 extract (right plate).
Fluorescent pseudomonads, and perhaps just P. aeruginosa, are the only microorganisms identified to produce HAQs (Budzikiewicz, FEMS Microbiol. Rev. 104, 209-228, 1993; Lépine et al., Biochim. Biophys. Acta 1622, 36-40, 2003). Although their biological functions are unknown, many HAQs were initially isolated as antibiotics (Hays et al., J. Biol. Chem. 159, 725-750, 1945; Wells, J. Biol. Chem. 196, 331-340, 1952). We assayed the antimicrobial activity of total organic extracts from PA14 and mvfR, pqsA, and pqsE mutant strains, and purified PQS, HHQ and HQNO, against the Gram-positive species Staphylococcus aureus and Bacillus subtilis. […] Thus, MvfR regulates the production of antibiotics that can function in niche competition against other bacteria. Because the pqsE mutant and PA14 produce roughly the same levels of antimicrobial activity, these antibiotic compounds are probably HAQs, instead of other non-polar compounds whose synthesis is under PQS control.
HAQ antimicrobial activity was evaluated on well-plates. […] Plates were incubated overnight at 37° C. and scored for growth inhibition zones around the test wells.

[5] = test system: cytochrome; conditions: Lightbown et al. 1956; cited from earlier work
[6] = test system: Na^+-translocating NADH-quinone oxidoreductases; conditions: Häse et al. 2001; cited from earlier work
[7] = test system: phzABC-lacZ reporter; assay: phzABC-lacZ reporter activity after exogenous HHQ, wild-type PA14 cells; assay type: cell-based, Pseudomonas aeruginosa PA14; conditions: wild-type PA14, 10 mg/L HHQ added to culture medium
From the text: To determine whether HHQ is itself involved in signal gene regulation, independently from PQS activity, or whether it functions solely as a PQS precursor, we asked whether exogenous HHQ can stimulate the activity of a phzABC-lacZ reporter carried by wild-type PA14 cells, and by lasR^− mutant cells.
as §1, with “The reporter fusions phzABC-lacZ and hcnA′-lacZ have been described (Whiteley et al., J. Bacteriol. 182, 4356-60, 2000; Pessi et al., J. Bacteriol. 182, 6940-9, 2000). Plasmids were transformed into PA14 by electroporation (Smith et al., Nuc. Acid. Res. 17, 10509, 1989).” left out, “1972). […]” for “1972).”

## CCCCCCCc1nc2ccccc2c(O)c1O [PQS, 3,4-dihydroxy-2-heptylquinoline]
[1]
  induction of pyocyanin production: failed to induce pyocyanin production
[2]
  pqsA-lacZ induction (LacZ activity): activates pqsA transcription
[3]
  antibiotic activity: no antibiotic activity

## Nc1ccccc1C(=O)O [AA, anthranilic acid]
[2]
  pqsA-lacZ induction (LacZ activity): does not

## CCCCCCCc1cc(O)c2ccccc2[n+]1[O-] [HQNO, 4-hydroxy-2-heptylquinoline N-oxide]
[4]
  antimicrobial activity (growth inhibition): specific antibacterial activity
[5]
  cytochrome inhibition: widely used cytochrome inhibitor
[6]
  inhibition of Na^+-translocating NADH-quinone oxidoreductases: inhibits

## CCCCCCCc1cc(O)c2ccccc2n1 [HHQ, 4-hydroxy-2-heptylquinoline]
[1]
  induction of pyocyanin production: failed to induce pyocyanin production
[7]
  β-galactosidase activity of phzABC-lacZ reporter: induces significant and consistent levels of β-galactosidase activity
